Values joined by “and” are separate entries in the source; they are usually repeats but may differ in a detail not shown here. Identical values can stand only once. Toxic doses and inconclusive results are not listed. No stated cut-off is given here; in the data, active means T/C of 150% or more; inactive means T/C below 125%.
System: L1210 leukemia ip in BDF1 mice, survival T/C
Assay: NCI In Vivo Anticancer Drug Screen. Data for tumor model L1210 Leukemia (intraperitoneal) in B6D2F1 (BDF1) mice
Conditions: endpoint: mean survival time, higher = longer survival
Summary of the method: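 Tumor cells were implanted, animals were treated, and survival was followed. The result divides the treated measurement by the vehicle-control measurement.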

[1] = dose: 100.0 mg/kg/injection, schedule: Q04DX002 (ip), vehicle: saline
[2] = dose: 200.0 mg/kg/injection, schedule: Q04DX002 (ip), vehicle: saline
[3] = dose: 400.0 mg/kg/injection, schedule: Q04DX002 (ip), vehicle: saline
[4] = dose: 100.0 mg/kg/injection, schedule: Q04DX003 (ip), vehicle: Klucel (hydroxypropylcellulose) (HPC)
[5] = dose: 100.0 mg/kg/injection, schedule: Q01DX001 (ip), vehicle: saline
[6] = dose: 200.0 mg/kg/injection, schedule: Q01DX001 (ip), vehicle: saline

Measured: T/C

O=c1[nH]c(C(F)(F)F)nc2[nH]ncc12
inactive: dose: 29.0 mg/kg/injection, schedule: Q01DX Z (ip), vehicle: methylcellulose (MC) 102 % of control | dose: 45.0 mg/kg/injection, schedule: Q01DX Z (ip), vehicle: methylcellulose (MC) 106 % of control | dose: 67.0 mg/kg/injection, schedule: Q01DX Z (ip), vehicle: methylcellulose (MC) 108 % of control | dose: 100.0 mg/kg/injection, schedule: Q01DX Z (ip), vehicle: methylcellulose (MC) 93 % of control

C1COC(COCC2CO2)C1 (configuration not stated)
inactive: dose: 100.0 mg/kg/injection, schedule: Q01DX009 (ip), vehicle: saline 100 % of control | [1] 98 % of control and 100 % of control and 120 % of control | dose: 100.0 mg/kg/injection, schedule: Q04DX003 (ip), vehicle: saline 99 % of control | dose: 200.0 mg/kg/injection, schedule: Q01DX009 (ip), vehicle: saline 92 % of control | [2] 103 % of control and 109 % of control and 111 % of control | dose: 200.0 mg/kg/injection, schedule: Q04DX003 (ip), vehicle: saline 98 % of control | dose: 400.0 mg/kg/injection, schedule: Q01DX009 (ip), vehicle: saline 93 % of control | [3] 98 % of control and 102 % of control (2×) | dose: 400.0 mg/kg/injection, schedule: Q04DX003 (ip), vehicle: saline 105 % of control

CC(=O)CC(C)=NCCN=C(C)CC(C)=O
inactive: dose: 100.0 mg/kg/injection, schedule: Q01DX009 (ip), vehicle: saline with Tween-80 91 % of control | dose: 200.0 mg/kg/injection, schedule: Q01DX009 (ip), vehicle: saline with Tween-80 94 % of control | dose: 400.0 mg/kg/injection, schedule: Q01DX009 (ip), vehicle: saline with Tween-80 92 % of control

COC(=O)CCS
inactive: dose: 10.0 mg/kg/injection, schedule: Q01DX001 (ip), vehicle: saline 101 % of control | dose: 20.0 mg/kg/injection, schedule: Q01DX001 (ip), vehicle: saline 101 % of control | dose: 40.0 mg/kg/injection, schedule: Q01DX001 (ip), vehicle: saline 96 % of control

CCOC(=O)CS(=O)(=O)CS(=O)(=O)CC(=O)OCC
inactive: dose: 100.0 mg/kg/injection, schedule: Q04DX002 (ip), vehicle: Klucel (hydroxypropylcellulose) (HPC) 94 % of control | dose: 200.0 mg/kg/injection, schedule: Q04DX002 (ip), vehicle: Klucel (hydroxypropylcellulose) (HPC) 100 % of control | dose: 400.0 mg/kg/injection, schedule: Q04DX002 (ip), vehicle: Klucel (hydroxypropylcellulose) (HPC) 100 % of control

CC[Si](CC)(CC)O[Si](CC)(CC)CC
inactive: [1] 102 % of control | [2] 94 % of control | [3] 97 % of control

CC(C)(C)N1CC(C(=O)c2ccccc2)C1c1ccc([N+](=O)[O-])cc1 (configuration not stated)
inactive: [4] 96 % of control | dose: 200.0 mg/kg/injection, schedule: Q04DX003 (ip), vehicle: Klucel (hydroxypropylcellulose) (HPC) 104 % of control

C=C(CCCCC)C(=O)/C=C/c1ccc(Cl)c(Cl)c1
inactive: dose: 12.5 mg/kg/injection, schedule: Q04DX002 (ip), vehicle: DMSO 101 % of control | dose: 25.0 mg/kg/injection, schedule: Q04DX002 (ip), vehicle: DMSO 114 % of control | dose: 50.0 mg/kg/injection, schedule: Q04DX002 (ip), vehicle: DMSO 104 % of control

CCC1(C)CC=C2C(=CCC3C(C)(CO)CCCC23C)C1 (configuration not stated)
inactive: dose: 50.0 mg/kg/injection, schedule: Q04DX002 (ip), vehicle: other 104 % of control | dose: 100.0 mg/kg/injection, schedule: Q04DX002 (ip), vehicle: other 93 % of control | dose: 200.0 mg/kg/injection, schedule: Q04DX002 (ip), vehicle: other 96 % of control

C#CCOP(=O)(C#CC)OCC#C
inactive: dose: 25.0 mg/kg/injection, schedule: Q04DX003 (ip), vehicle: Klucel (hydroxypropylcellulose) (HPC) 93 % of control | dose: 50.0 mg/kg/injection, schedule: Q04DX003 (ip), vehicle: Klucel (hydroxypropylcellulose) (HPC) 97 % of control | [4] 98 % of control | dose: 100.0 mg/kg/injection, schedule: Q04DX003 (ip), vehicle: saline with Tween-80 95 % of control

CC1CC(C)(C)OB(OC(C)CC(C)(C)OB2OC(C)CC(C)(C)O2)O1 (configuration not stated)
inactive: dose: 50.0 mg/kg/injection, schedule: Q01DX001 (ip), vehicle: saline 102 % of control | [5] 107 % of control | [6] 96 % of control | dose: 400.0 mg/kg/injection, schedule: Q01DX001 (ip), vehicle: saline 107 % of control

CC(Cl)C(=O)OC(C)(C)Cl (configuration not stated)
inactive: dose: 75.0 mg/kg/injection, schedule: Q01DX001 (ip), vehicle: carboxymethylcellulose (CMC) 104 % of control | dose: 150.0 mg/kg/injection, schedule: Q01DX001 (ip), vehicle: carboxymethylcellulose (CMC) 107 % of control

CCCCCOC(=S)S
inactive: dose: 9.37 mg/kg/injection, schedule: Q01DX009 (ip), vehicle: saline 100 % of control | dose: 18.75 mg/kg/injection, schedule: Q01DX009 (ip), vehicle: saline 110 % of control | dose: 37.5 mg/kg/injection, schedule: Q01DX009 (ip), vehicle: saline 98 % of control | [5] 109 % of control | [6] 103 % of control

Clc1ccc(N=Cc2ccccc2)cn1
inactive: dose: 50.0 mg/kg/injection, schedule: Q01DX001 (ip), vehicle: carboxymethylcellulose (CMC) 105 % of control | dose: 100.0 mg/kg/injection, schedule: Q01DX001 (ip), vehicle: carboxymethylcellulose (CMC) 88 % of control | dose: 200.0 mg/kg/injection, schedule: Q01DX001 (ip), vehicle: carboxymethylcellulose (CMC) 111 % of control | dose: 400.0 mg/kg/injection, schedule: Q01DX001 (ip), vehicle: carboxymethylcellulose (CMC) 100 % of control

c1cc[n+](CCNCC[n+]2ccccc2)cc1
inactive: dose: 75.0 mg/kg/injection, schedule: Q01DX001 (ip), vehicle: saline 93 % of control | dose: 150.0 mg/kg/injection, schedule: Q01DX001 (ip), vehicle: saline 94 % of control

NC(=O)CCC(NC(=O)Cc1ccccc1)C(=O)O (configuration not stated)
inactive: dose: 18.75 mg/kg/injection, schedule: Q01DX001 (ip), vehicle: Klucel (hydroxypropylcellulose) (HPC) 92 % of control | dose: 37.5 mg/kg/injection, schedule: Q01DX001 (ip), vehicle: Klucel (hydroxypropylcellulose) (HPC) 100 % of control | dose: 75.0 mg/kg/injection, schedule: Q01DX001 (ip), vehicle: Klucel (hydroxypropylcellulose) (HPC) 97 % of control
